Laboratory results reported in US20260166068A1, “COMPOSITION FOR PROMOTING DEVELOPMENT OF BRAIN FUNCTIONS IN CHILDREN” (Meiji Co., Ltd., priority 2022, published 2026).
Values joined by “and” are separate entries in the source; they are usually repeats but may differ in a detail not shown here. Identical values can stand only once.

Columns and labels:
[1] = tested on: old rats; settings: each alone or in combination; cited from earlier work
[2] = tested on: mouse; settings: aging; cited from earlier work
[3] = tested on: aged mice; settings: cited from earlier work
[4] = tested on: brain function development of infants; assay: Between-group comparison (Mann-Whitney U) of ASQ-3 developmental scores, high NMN vs low NMN breast milk; assay type: in vivo, human
Method: (§1) The method was specifically as follows.
By using the data on the contents of NMN in breast milk and the developmental scores of the infants shown in Method 1, the subject infants were divided into two groups according to the concentration of NMN in breast milk, and the groups were compared according to Mann-Whitney's U-test. In this study, the boundary concentration of the two groups was set to be 1.922 μg/mL (mean NMN concentration in 1-month breast milk−1×standard deviation) or 3.089 μg/mL (mean NMN concentration in 1-month breast milk). That is, the group comparison was performed between two groups of NMN concentrations in the consumed breast milk of […] (high NMN group) and <1.922 μg/mL (low NMN group), or two groups of the same of 3.089 μg/mL (high NMN group) and <3.089 μg/mL (low NMN group).

[5] = tested on: mouse model of drug-induced depression; settings: cited from earlier work
[6] = tested on: brain function development of infants; assay: Spearman correlation of NAD-related substance concentration in 1-month breast milk with ASQ-3 developmental scores at 24 months; assay type: in vivo, human; settings: for Correlation with concentration, r (Spearman): ASQ-3 at 24 months, 1-month breast milk; for Correlation of concentration in breast milk with developmental scores (in words): p<0.05
Method: as §1
Concentrations of NAD-related substances in 1-month breast milk ingested by 150 infants of 1 to 6 months old, who were fully breastfed, were determined by LC-MS/MS.
Development of the infants was assessed at the age of 24 months using ASQ (registered trademark)-3 (Japanese version of ASQ (registered trademark)-3 infant developmental screening questionnaires, Igaku Shoin, 2021). The relationship between the amount of each NAD-related substance ingested by the infants and their development was evaluated by using Spearman's rank-order correlation coefficient.

[7] = tested on: mice; settings: cited from earlier work
[8] = tested on: piglets; settings: cited from earlier work

For `NC(=O)c1ccc[n+]([C@@H]2O[C@H](COP(=O)([O-])O)[C@@H](O)[C@H]2O)c1` [NMN, nicotinamide mononucleotide], the “Learning and memory abilities” value [1] is given as “improves their learning and memory abilities”, the “Hypersensitive behaviors to fear and anxiety” value [2] is given as “may alleviate hypersensitive behaviors to fear and anxiety” and the Neurovascular coupling [3] is given as “may promote neurovascular coupling”. The “Development of the infants, high NMN group vs low NMN group” value (shortened to “Development … vs low NMN group”) ([4]; fine motor, boundary value 3.089 μg/mL, FIG. 2) was “significantly accelerated”, the “NMN level in the composition at which infants' brain functions are significantly enhanced” value ([4]; in vivo) was ≥ 1.922 µg/mL and the “Development … vs low NMN group” value ([4]; personal-social, boundary value 1.922 μg/mL, FIG. 1) was “significantly accelerated”. For the same molecule, the “Development … vs low NMN group” value ([4]; personal-social, boundary value 3.089 μg/mL, FIG. 2) was “significantly accelerated”, the “Development … vs low NMN group” value ([4]; problem solving, boundary value 3.089 μg/mL, FIG. 2) was “significantly accelerated” and the Drug-induced depression-like symptoms [5] was “improves drug-induced depression-like symptoms”. The “Correlation with concentration, r (Spearman)” value (“Correlation with concentration” below) ([6]; Communication, 150 infants) was 0.199, the “Correlation with concentration” value ([6]; Fine motor) was 0.208 and the “Correlation with concentration” value ([6]; Gross motor) was 0.186. For the same molecule, the “Correlation with concentration” value ([6]; Problem solving) was 0.288, the “Correlation with concentration” value ([6]; Social-individual) was 0.269 and 0.259 and the “Correlation of concentration in breast milk with developmental scores (in words)” value (“Correlation of concentration” below) ([6]; all five developmental areas at 24 months) was “significant positive correlation”. The “Effectiveness in promoting brain development in infants among the NAD-related substances” value ([6]; in vivo) was “most effective” and the “Correlation between amount in breast milk ingested from 1 to 6 months of age and development by ASQ-3 24-month (in words)” value ([6]; overall) was “high correlation”.
For `O=C(O)c1cccnc1` [NA, nicotinic acid], the “Correlation with concentration” value ([6]; Communication, 150 infants) was 0.025, the “Correlation with concentration” value ([6]; Gross motor) was 0.095 and the “Correlation with concentration” value ([6]; Problem solving) was 0.147. The “Correlation with concentration” value ([6]; Social-individual) was 0.154 and the “Correlation of concentration” value ([6]; gross motor) was “positive correlation”.
In the case of `COc1ccc2[nH]cc(CCNC(C)=O)c2c1` [melatonin], the “Learning and memory abilities” value [1] is given as “improves their learning and memory abilities”.
In the case of `NC(=O)c1ccc[n+]([C@@H]2O[C@H](COP(=O)([O-])OP(=O)(O)OC[C@H]3O[C@@H](n4cnc5c(N)ncnc54)[C@H](O)[C@@H]3O)[C@@H](O)[C@H]2O)c1` [NAD, nicotinamide adenine dinucleotide], the “Correlation with concentration” value ([6]; Fine motor) is reported as 0.025, the “Correlation with concentration” value ([6]; Gross motor) is reported as 0.077 and the “Correlation with concentration” value ([6]; Problem solving) is reported as 0.056. For the same molecule, the “Correlation with concentration” value ([6]; Social-individual) was 0.048.
In the case of `NC(=O)c1ccc[n+]([C@@H]2O[C@H](CO)[C@@H](O)[C@H]2O)c1` [NR, nicotinamide riboside], the “BDNF level in breast milk” value ([7]; NR supplementation of mothers) is listed as “twice as high”, the “Fat and brain size of offspring at weaning” value ([7]; mice raised by supplemented mothers) is listed as “lower fat and larger brains” and the “Milk secretion and production of BDNF” value ([7]; mouse, in vivo) is listed as “stimulates milk secretion”. The “Short-chain fatty acids in feces” value [8] was “increased levels”, the “Correlation with concentration” value ([6]; Communication, 150 infants) was 0.017 and the “Correlation with concentration” value ([6]; Fine motor) was 0.085. For the same molecule, the “Correlation with concentration” value ([6]; Gross motor) was 0.082, the “Correlation with concentration” value ([6]; Social-individual) was 0.117 and the “Correlation of concentration” value ([6]; problem solving) was “positive correlation”.
